Here are results for one compound from US20240290133A1, “HERBAL COMPOSITION FOR BREAST CANCER PREVENTION” (priority 2021, published 2024).

This series has as its system MCF-7 breast cancer cells. Description: MCF-7 cell viability (PrestoBlue Cell Viability Reagent, fluorescence). The following applies: individual ingredients, 2 mg/0.2 ml, 24 h, single replicate wells (Table 3). Format: cell-based, human. How it is done:
In order to assess this activity, a well-established line of breast cancer cells used in cancer research was selected. MCF-7 is a widely studied cancer cell line derived from breast adenocarcinoma, it was proven to be a suitable model cell line for breast cancer investigations worldwide, including those regarding anticancer drugs.
The cells were cultured with growth medium and seeded in two 96 well plates incubated at 37 Celsius. The HCBCP solution was prepared by dissolving the powder in DPBS as per Table 1, below.
The obtained solutions were sterilized by 0.22-micron filtration.
An amount of 0.2 ml was applied in each test tube providing 2 mg of HCBCP. […]
After incubation period of 24 and 48 hours, cell viability was measured using PrestoBlue™ Cell Viability Reagent, according to manufacturer instructions.
Fluorescence was detected at excitation wavelength of 560 nm and an emission of 590 nm, using TECAN SPARK 10M microplate reader, at 24 and 48 hours after application. The fluorescence data is expressed as percentage of cell viability (%) compared to vehicle control.
Percentage of cell viability was calculated using the following formula: [(fluorescence of treated cells−mean background fluorescence)/(fluorescence of cells with vehicle control−mean background fluorescence)]×100, at 24 and 48 hours after application. […]

Structures are written as SMILES. “And” between values parts separate entries of the source, which are not always exact repeats. Identical values can stand only once.

For the compound `O=c1c(O)c(-c2ccc(O)c(O)c2)oc2cc(O)cc(O)c12` [BF 2 Q, Quercetin], the FU-background was 16881.00 FU and 16665.00 FU and 15291.00 FU and 14944.00 FU; the “Fluorescence units (FU)” value was 22892 FU and 22876 FU and 21302 FU.
